The source of these data is US10081628B2, “Apoptosis-inducing agents for the treatment of cancer and immune and autoimmune diseases” (AbbVie Inc., priority 2013, dated 2018).

Test [1] concerns lymphocytes. Put plainly: Lymphocyte reduction in C57BL/6 mice. Format: in vivo. The note with it: Mus musculus, ip. The method in brief:
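C57Bl/6 mice dosed intraperitoneally at 30 mg/kg daily for four days. Blood cell counts by hematology analyzer 24 hours after first and last doses; exposure (AUC) from samples at 1, 6, 10 and 24 hours after last dose.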

Test [2] relates to RS4;11 cells. Put plainly: RS4;11 cell viability assay (CellTiter Glo). Format: cell-based. The note with it: 10% human serum, 48 hours. The method in brief:
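Cells seeded at 50,000 per well and exposed to compounds for 48 h at 37 C, 5% CO2 in the presence of 10% human serum. Viability read by CellTiter Glo; EC50 derived from percentage of viable cells versus untreated controls.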

The target in test [3] is GST-Bcl-2 (Homo sapiens, UniProt P10415). Put plainly: TR-FRET Bcl-2 binding assay (F-Bak peptide probe). The note with it: GST-Bcl-2 1 nM, F-Bak peptide probe 100 nM, Tb-anti-GST 1 nM; Wang's equation; '<' = below limit of detection. The method in brief: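 Competitive TR-FRET displacement of F-Bak peptide probe from GST-Bcl-2 detected with Tb-anti-GST antibody; compounds serially diluted in DMSO from 50 μM (2× starting concentration). Mixtures incubated 3 h at room temperature, read at 340 nm excitation with 520 and 495 nm emission. Ki derived by Wang's equation.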

The mark [4] stands for this setting: 30 mg/kg intraperitoneal every day for four days, 24 hours after the last dose, read-out: Lymphocyte reduction % inh. day 4.
[5] abbreviates: 30 mg/kg intraperitoneal every day, 24 hours after the first dose, read-out: Lymphocyte reduction % inh. day 1.

Where two headings read alike, the source gives them in different places. A value given as a limit tells only on which side of the number the result lay.

Chain of GST-Bcl-2 (P10415 whole entry): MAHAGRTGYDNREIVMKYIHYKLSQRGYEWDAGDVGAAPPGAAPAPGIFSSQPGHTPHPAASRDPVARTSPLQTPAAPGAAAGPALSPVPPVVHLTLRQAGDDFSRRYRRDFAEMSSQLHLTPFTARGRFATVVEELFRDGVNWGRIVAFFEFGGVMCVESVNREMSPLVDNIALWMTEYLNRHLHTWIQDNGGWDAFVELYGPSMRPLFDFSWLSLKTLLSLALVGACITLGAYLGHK

In the case of `COC1(CNc2ccc(S(=O)(=O)NC(=O)c3ccc(N4CCN(CC5=C(c6ccc(Cl)cc6)CC(C)(C)CC5)CC4)cc3Oc3cnc4[nH]ccc4c3)cc2[N+](=O)[O-])CCOCC1` [Example 27, 4-(4-{[2-(4-chlorophenyl)-4,4-dimethylcyclohex-1-en-1-yl]methyl}piperazin-1-yl)-N-[(4-{[(4-methoxytetrahydro-2H-pyran-4-yl)methyl]amino}-3-nitrophenyl)sulfonyl]-2-(1H-pyrrolo[2,3-b]pyridin-5-yloxy)benzamide], the inhibition at 30 mg/kg came out at 21% in test [1] (setting [4]) and 23% in test [1] (setting [5]). In addition, it took 97 nM to reach a half-maximal effect in test [2] (EC50). The inhibition constant Ki in test [3] was under 0.1 nM.
As for `C[C@@H]1C[C@H](CNc2ccc(S(=O)(=O)NC(=O)c3ccc(N4CCN(CC5=C(c6ccc(Cl)cc6)CC(C)(C)CC5)CC4)cc3Oc3cnc4[nH]ccc4c3)cc2[N+](=O)[O-])C[C@H](C)O1` [Example 31, 4-(4-{[2-(4-chlorophenyl)-4,4-dimethylcyclohex-1-en-1-yl]methyl}piperazin-1-yl)-N-{[4-({[(2R,4R,6S)-2,6-dimethyltetrahydro-2H-pyran-4-yl]methyl}amino)-3-nitrophenyl]sulfonyl}-2-(1H-pyrrolo[2,3-b]pyridin-5-yloxy)benzamide], the figures for the inhibition at 30 mg/kg in test [1] (setting [4]) and in test [1] (setting [5]) were 55% and 53%, respectively. In test [2], the midpoint of the response, the EC50, lay at 16 nM. The Ki in test [3] was under 0.1 nM.
In the same order, the values of `CC1(C)CCC(CN2CCN(c3ccc(C(=O)NS(=O)(=O)c4ccc(NC[C@@H]5CCOC(C)(C)C5)c([N+](=O)[O-])c4)c(Oc4cnc5[nH]ccc5c4)c3)CC2)=C(c2ccc(Cl)cc2)C1` [Example 34, 4-(4-{[2-(4-chlorophenyl)-4,4-dimethylcyclohex-1-en-1-yl]methyl}piperazin-1-yl)-N-{[4-({[(4R)-2,2-dimethyltetrahydro-2H-pyran-4-yl]methyl}amino)-3-nitrophenyl]sulfonyl}-2-(1H-pyrrolo[2,3-b]pyridin-5-yloxy)benzamide] are 61%, under 15%, 13 nM and under 0.1 nM.
The like results for `C[C@@H]1COC[C@H](CNc2ccc(S(=O)(=O)NC(=O)c3ccc(N4CCN(CC5=C(c6ccc(Cl)cc6)CC(C)(C)CC5)CC4)cc3Oc3cnc4[nH]ccc4c3)cc2[N+](=O)[O-])O1` [Example 35, 4-(4-{[2-(4-chlorophenyl)-4,4-dimethylcyclohex-1-en-1-yl]methyl}piperazin-1-yl)-N-{[4-({[(2S,6R)-6-methyl-1,4-dioxan-2-yl]methyl}amino)-3-nitrophenyl]sulfonyl}-2-(1H-pyrrolo[2,3-b]pyridin-5-yloxy)benzamide] were, in that order, 49%, 54%, 12 nM and under 0.1 nM.
In the same order, the values of `CC1(C)CCC(CN2CCN(c3ccc(C(=O)NS(=O)(=O)c4ccc(NC[C@@H]5CCOC5)c([N+](=O)[O-])c4)c(Oc4cnc5[nH]ccc5c4)c3)CC2)=C(c2ccc(Cl)cc2)C1` [Example 36, 4-(4-{[2-(4-chlorophenyl)-4,4-dimethylcyclohex-1-en-1-yl]methyl}piperazin-1-yl)-N-[(3-nitro-4-{[(3 S)-tetrahydrofuran-3-ylmethyl]amino}phenyl)sulfonyl]-2-(1H-pyrrolo[2,3-b]pyridin-5-yloxy)benzamide] are 42%, 47%, 32 nM and under 0.1 nM.

As a reminder, the EC50 is the concentration at which the effect is half-maximal. Lower therefore signals higher potency in that assay. As a reminder, the Ki is a measure of affinity in units of concentration, obtained from inhibition or displacement. Higher therefore signals a looser hold on the target.
